Calls of active or inactive are those of the source.
Experiments:
[1] = target: Glyceraldehyde-3-phosphate dehydrogenase (Homo sapiens, UniProt P04406)
[2] = target: T1, Bcl-2-related protein A1 (Mus musculus, UniProt Q07440); assay: small-molecule antagonists of Bfl-1/BH3 interaction – biochemical, TR-FRET, mouse Bfl-1, confirmation (AID 621);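 further: TR-FRET binding of GST-Bfl-1 to FITC-labelled Bid peptide via terbium antibody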
T1 sequence (Q07440 whole entry): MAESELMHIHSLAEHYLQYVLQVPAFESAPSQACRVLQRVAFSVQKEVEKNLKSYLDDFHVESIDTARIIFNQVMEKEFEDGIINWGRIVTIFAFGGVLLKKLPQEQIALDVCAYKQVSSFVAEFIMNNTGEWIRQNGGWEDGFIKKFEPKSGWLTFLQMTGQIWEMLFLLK

[3] = target: T1, Bcl-2-related protein A1; assay: Bfl-1 binding inhibitors, SAR follow-up, biochemical, fluorescence polarization (AID 1070)
[4] = target: T2, Nucleotide-binding oligomerization domain-containing protein 1 (Homo sapiens, UniProt Q9Y239); assay: SAR analysis of compounds that inhibit NOD1 - Set 3. [Related pubchem assays (depositor defined):AID1566, AID1575, AID1578, AID1849, AID1852, AID2333, AID2335, AID2466]; assay type: functional
T2 sequence (Q9Y239 whole entry): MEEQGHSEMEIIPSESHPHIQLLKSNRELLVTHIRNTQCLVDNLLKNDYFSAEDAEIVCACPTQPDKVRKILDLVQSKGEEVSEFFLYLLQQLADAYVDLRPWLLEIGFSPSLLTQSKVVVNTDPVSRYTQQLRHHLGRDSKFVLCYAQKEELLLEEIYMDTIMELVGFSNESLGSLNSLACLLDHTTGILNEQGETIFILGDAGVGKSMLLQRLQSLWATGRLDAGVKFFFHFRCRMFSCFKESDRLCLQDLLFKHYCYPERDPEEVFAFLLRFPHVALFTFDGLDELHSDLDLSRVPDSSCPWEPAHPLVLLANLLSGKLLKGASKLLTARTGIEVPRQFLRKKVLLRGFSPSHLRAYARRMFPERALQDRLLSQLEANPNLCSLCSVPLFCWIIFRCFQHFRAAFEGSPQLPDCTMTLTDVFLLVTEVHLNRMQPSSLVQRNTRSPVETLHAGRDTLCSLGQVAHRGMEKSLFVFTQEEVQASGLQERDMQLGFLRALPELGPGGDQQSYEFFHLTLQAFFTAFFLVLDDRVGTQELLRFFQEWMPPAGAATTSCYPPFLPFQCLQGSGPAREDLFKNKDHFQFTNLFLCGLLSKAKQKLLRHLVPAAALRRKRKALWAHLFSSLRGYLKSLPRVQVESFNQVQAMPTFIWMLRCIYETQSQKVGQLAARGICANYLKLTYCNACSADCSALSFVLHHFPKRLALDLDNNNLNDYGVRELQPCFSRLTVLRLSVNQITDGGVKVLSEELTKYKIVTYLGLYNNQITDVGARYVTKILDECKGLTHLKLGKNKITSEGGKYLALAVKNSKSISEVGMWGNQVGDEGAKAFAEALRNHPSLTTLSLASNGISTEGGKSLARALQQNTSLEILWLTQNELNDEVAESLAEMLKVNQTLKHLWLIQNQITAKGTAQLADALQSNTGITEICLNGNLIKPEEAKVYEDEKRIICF

[5] = target: Tumor necrosis factor (Homo sapiens, UniProt P01375); assay: analog potency on TNFa NF-kB signaling – cell-based, set 3, SAR follow-up (AID 2801); assay type: functional
Sequence of Tumor necrosis factor (P01375 whole entry): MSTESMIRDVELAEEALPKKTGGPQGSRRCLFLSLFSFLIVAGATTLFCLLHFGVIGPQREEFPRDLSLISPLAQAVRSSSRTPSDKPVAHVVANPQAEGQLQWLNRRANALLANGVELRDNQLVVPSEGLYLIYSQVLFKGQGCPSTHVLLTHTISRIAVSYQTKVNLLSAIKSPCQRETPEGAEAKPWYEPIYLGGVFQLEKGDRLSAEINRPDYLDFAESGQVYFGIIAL

[6] = tested on: HEK293; assay: SAR analysis of compounds that are cytotoxic to HEK293 - Set 3. [Related pubchem assays (depositor defined):AID1575, AID1578, AID1848, AID1849, AID2001, AID2333, AID2334, AID2335, AID2337, AID2469]; assay type: functional, cell-based; settings: Homo sapiens
[7] = target: Nucleotide-binding oligomerization domain-containing protein 2 (Homo sapiens, UniProt Q9HC29); assay: inhibition of MDP-driven NOD2 NF-kB reporter – cell-based, set 3, SAR follow-up (AID 2799); assay type: functional
[8] = NIH-3T3 fibroblast cytotoxicity, dose response, cytotoxicity control, cell-based, fluorescence, Alamar Blue, secondary assay (AID 2327); assay type: functional;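 further: NIH-3T3 mouse fibroblasts cultured with fluconazole at 8 µg/mL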
[9] = tested on: Streptococcus sp. 'group A'; assay: Streptococcus pyogenes SK(-)GAS viability under kanamycin – luminescence, BacTiterGlo, confirmation, counter-screen for streptokinase expression inhibitor project, dose response (AID 1900); assay type: functional, organism-based
[10] = fluconazole-exposed Candida albicans growth modulators – fluorescence, retest, confirmation (AID 2467); assay type: functional, cell-based
[11] = target: T3, Serine/threonine-protein phosphatase (Candida dubliniensis (strain CD36 / CBS 7987 / NCPF 3949 / NRRLY-17841) (Yeast), UniProt B9W6M3); assay: blockers of CaCl2-induced CDRE-lacZ signaling – S. cerevisiae, luminescence, secondary, dose response (AID 2388); assay type: functional, cell-based;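 further: yeast reporter cells carrying a calcineurin-responsive lacZ construct stimulated with calcium chloride; luminescent beta-galactosidase reporter signal in whole cells rather than isolated phosphatase activity; potency for inhibition where a drop in reporter signal means calcineurin blockade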
T3 sequence (B9W6M3 whole entry): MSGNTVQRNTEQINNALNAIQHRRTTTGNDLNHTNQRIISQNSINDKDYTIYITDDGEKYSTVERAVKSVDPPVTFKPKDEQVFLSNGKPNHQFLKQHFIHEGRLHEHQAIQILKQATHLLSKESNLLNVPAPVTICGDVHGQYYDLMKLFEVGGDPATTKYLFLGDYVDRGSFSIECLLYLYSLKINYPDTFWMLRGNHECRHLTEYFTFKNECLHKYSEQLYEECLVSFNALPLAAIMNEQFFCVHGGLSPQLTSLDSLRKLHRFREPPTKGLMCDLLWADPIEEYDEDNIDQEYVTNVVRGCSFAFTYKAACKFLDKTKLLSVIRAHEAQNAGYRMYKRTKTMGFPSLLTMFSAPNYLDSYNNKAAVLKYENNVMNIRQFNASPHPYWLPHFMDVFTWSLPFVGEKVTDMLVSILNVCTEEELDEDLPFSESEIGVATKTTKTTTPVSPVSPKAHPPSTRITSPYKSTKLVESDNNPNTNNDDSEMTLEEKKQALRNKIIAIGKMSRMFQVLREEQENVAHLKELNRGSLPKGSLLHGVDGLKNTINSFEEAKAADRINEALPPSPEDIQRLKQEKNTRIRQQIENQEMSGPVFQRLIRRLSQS

[12] = tested on: Streptococcus; assay: GAS UMAA2166 growth inhibition – luminescence, BacTiterGlo, counter-screen for streptokinase expression inhibitor project, dose response (AID 1915); assay type: functional, organism-based;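 further: potency for reduction of bacterial viability or growth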
[13] = target: Exodeoxyribonuclease V (Escherichia coli (strain K12), UniProt P04993+P07648+P08394); assay: RecBCD inhibition via phage-restricted bacterial growth – absorbance, V66 E. coli, mutant T4 phage, counter-screen for AddAB inhibitor project, dose response (AID 492957); assay type: functional, cell-based, Escherichia coli str. K-12 substr. MG1655
[14] = Counterscreen for AddAB inhibitors: absorbance-based bacterial cell-based high throughput dose response assay for inhibitors of bacterial viability. [Related pubchem assays (depositor defined):AID435030, AID449728, AID449731, AID488942, AID488955, AID488956]; assay type: functional
[15] = target: T4, High affinity choline transporter 1 (Homo sapiens, UniProt Q9GZV3); assay: human choline transporter blockers, potency – cell-based, 5-point CRC, membrane potential dye, dose response (AID 504840); assay type: functional
T4 sequence (Q9GZV3 whole entry): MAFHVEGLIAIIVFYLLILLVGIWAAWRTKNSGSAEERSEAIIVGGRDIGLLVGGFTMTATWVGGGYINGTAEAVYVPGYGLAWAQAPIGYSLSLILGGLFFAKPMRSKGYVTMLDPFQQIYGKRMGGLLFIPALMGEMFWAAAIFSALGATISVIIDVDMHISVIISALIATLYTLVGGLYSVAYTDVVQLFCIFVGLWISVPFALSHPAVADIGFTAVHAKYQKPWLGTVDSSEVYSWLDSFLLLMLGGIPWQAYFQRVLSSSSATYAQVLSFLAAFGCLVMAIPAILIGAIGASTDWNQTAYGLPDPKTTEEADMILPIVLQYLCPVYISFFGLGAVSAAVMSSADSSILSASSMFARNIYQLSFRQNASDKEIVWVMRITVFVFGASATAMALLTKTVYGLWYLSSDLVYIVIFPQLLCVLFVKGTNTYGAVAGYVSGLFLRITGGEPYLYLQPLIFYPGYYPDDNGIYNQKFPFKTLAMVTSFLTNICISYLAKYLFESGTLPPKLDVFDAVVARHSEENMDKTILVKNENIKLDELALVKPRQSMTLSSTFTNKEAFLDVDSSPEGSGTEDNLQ

[16] = target: ATP-dependent molecular chaperone HSP82 (Candida albicans (strain WO-1) (Yeast), UniProt C4YTQ8); assay: steroid-induced GRE reporter decrease in yeast – S. cerevisiae, luminescence, Hsp90 inhibitor project, dose response (AID 2400); assay type: functional, cell-based;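 further: beta-galactosidase luminescence from glucocorticoid response element reporter as proxy for Hsp90 function; inhibitor potency where signal loss means Hsp90 inhibition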
[17] = mammalian cell viability loss – Alamar Blue, dry powder, cytotoxicity control for antifungal single agent project, dose response (AID 602188); assay type: functional, cell-based
[18] = Trypanosoma cruzi growth suppression in host cells – NIH3T3 host cells, beta-gal luminescence, confirmation (AID 2044); assay type: functional, cell-based;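 further: intracellular parasites grown in NIH/3T3 mouse fibroblasts as host cells; luminescent beta-galactosidase reporter signal from transgenic T. cruzi replicating inside host cells; inhibitors lower the luminescence signal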
[19] = NIH3T3 cell viability loss – ATP luminescence, mouse fibroblasts, counter-screen, dose response (AID 2010); assay type: functional, cell-based;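 further: cells exposed to compound for about 90 hours before reading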
[20] = target: Intestinal-type alkaline phosphatase (Mus musculus, UniProt P24822); assay: PubChem AID 488785; assay type: functional
[21] = target: Alkaline phosphatase, tissue-nonspecific isozyme (Homo sapiens, UniProt P05186); assay: TNAP enzyme inhibition by screening hits, dose response, selectivity assay for mouse IAP inhibitor project, biochemical, human TNAP, uHTS hits (AID 488906); assay type: functional
[22] = target: Intestinal-type alkaline phosphatase (Homo sapiens, UniProt P09923); assay: inhibition of human intestinal alkaline phosphatase – biochemical, dose response (AID 488876); assay type: functional
[23] = target: T5, Dual specificity protein phosphatase 3 (Homo sapiens, UniProt P51452); assay: VHR1 phosphatase inhibitors, primary screen, biochemical, absorbance, uHTS (AID 1654)
T5 sequence (P51452 whole entry): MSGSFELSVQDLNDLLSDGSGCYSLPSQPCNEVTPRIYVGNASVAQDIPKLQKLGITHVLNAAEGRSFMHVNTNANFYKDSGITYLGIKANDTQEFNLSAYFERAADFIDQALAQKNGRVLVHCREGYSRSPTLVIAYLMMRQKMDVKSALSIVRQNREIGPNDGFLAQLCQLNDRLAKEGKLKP

[24] = target: Guanyl-specific ribonuclease T1 (Aspergillus oryzae (strain ATCC 42149 / RIB 40), UniProt P00651); assay: inhibition of ribonuclease T1 activity – biochemical, fluorescence polarization, 1536-well, counter-screen for TPT1 inhibitor project, dose response (AID 2167)
Sequence of Guanyl-specific ribonuclease T1 (P00651 whole entry): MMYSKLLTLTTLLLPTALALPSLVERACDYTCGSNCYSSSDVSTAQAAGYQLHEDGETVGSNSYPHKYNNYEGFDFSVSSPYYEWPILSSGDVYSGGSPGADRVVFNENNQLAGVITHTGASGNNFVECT

[25] = target: T6, SUMO-activating enzyme (Homo sapiens, UniProt Q9UBT2); assay: blockers of UBC9-mediated SUMO conjugation – biochemical, AlphaScreen, SUMOylation inhibitor project, confirmation (AID 2018); assay type: functional
T6 sequence (Q9UBE0 whole entry): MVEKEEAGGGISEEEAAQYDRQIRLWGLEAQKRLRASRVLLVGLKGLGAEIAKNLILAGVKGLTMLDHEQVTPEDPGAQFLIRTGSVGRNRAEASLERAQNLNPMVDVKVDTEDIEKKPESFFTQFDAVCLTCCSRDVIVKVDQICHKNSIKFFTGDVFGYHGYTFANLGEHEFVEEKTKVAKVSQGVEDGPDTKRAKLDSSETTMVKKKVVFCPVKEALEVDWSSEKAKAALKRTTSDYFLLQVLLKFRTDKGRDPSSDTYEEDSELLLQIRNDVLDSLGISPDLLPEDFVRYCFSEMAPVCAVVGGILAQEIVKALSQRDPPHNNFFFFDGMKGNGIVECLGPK
T6 sequence (Q9UBT2 whole entry): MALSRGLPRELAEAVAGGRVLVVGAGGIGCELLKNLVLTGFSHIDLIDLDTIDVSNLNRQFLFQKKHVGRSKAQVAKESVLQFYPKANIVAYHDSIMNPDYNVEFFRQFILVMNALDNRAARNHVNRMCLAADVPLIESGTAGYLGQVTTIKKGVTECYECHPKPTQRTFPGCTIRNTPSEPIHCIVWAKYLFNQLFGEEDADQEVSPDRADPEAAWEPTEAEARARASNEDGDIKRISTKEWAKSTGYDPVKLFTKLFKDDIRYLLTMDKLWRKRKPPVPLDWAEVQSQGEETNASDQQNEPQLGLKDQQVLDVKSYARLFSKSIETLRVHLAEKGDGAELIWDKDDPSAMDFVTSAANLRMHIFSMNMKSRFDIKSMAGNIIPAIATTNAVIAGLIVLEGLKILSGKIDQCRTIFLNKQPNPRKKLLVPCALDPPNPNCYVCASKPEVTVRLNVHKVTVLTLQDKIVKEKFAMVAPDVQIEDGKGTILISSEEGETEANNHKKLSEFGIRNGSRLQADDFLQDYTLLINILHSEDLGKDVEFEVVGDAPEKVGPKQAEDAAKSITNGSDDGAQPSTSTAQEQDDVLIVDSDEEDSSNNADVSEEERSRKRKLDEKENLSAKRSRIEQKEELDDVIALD

[26] = target: T7, Voltage-gated N-type calcium channel alpha-1B subunit/Amyloid beta A4 precursor protein-binding family A member 1 (Homo sapiens, UniProt Q00975+Q02410); assay type: protein assay
T7 sequence (Q00975 whole entry): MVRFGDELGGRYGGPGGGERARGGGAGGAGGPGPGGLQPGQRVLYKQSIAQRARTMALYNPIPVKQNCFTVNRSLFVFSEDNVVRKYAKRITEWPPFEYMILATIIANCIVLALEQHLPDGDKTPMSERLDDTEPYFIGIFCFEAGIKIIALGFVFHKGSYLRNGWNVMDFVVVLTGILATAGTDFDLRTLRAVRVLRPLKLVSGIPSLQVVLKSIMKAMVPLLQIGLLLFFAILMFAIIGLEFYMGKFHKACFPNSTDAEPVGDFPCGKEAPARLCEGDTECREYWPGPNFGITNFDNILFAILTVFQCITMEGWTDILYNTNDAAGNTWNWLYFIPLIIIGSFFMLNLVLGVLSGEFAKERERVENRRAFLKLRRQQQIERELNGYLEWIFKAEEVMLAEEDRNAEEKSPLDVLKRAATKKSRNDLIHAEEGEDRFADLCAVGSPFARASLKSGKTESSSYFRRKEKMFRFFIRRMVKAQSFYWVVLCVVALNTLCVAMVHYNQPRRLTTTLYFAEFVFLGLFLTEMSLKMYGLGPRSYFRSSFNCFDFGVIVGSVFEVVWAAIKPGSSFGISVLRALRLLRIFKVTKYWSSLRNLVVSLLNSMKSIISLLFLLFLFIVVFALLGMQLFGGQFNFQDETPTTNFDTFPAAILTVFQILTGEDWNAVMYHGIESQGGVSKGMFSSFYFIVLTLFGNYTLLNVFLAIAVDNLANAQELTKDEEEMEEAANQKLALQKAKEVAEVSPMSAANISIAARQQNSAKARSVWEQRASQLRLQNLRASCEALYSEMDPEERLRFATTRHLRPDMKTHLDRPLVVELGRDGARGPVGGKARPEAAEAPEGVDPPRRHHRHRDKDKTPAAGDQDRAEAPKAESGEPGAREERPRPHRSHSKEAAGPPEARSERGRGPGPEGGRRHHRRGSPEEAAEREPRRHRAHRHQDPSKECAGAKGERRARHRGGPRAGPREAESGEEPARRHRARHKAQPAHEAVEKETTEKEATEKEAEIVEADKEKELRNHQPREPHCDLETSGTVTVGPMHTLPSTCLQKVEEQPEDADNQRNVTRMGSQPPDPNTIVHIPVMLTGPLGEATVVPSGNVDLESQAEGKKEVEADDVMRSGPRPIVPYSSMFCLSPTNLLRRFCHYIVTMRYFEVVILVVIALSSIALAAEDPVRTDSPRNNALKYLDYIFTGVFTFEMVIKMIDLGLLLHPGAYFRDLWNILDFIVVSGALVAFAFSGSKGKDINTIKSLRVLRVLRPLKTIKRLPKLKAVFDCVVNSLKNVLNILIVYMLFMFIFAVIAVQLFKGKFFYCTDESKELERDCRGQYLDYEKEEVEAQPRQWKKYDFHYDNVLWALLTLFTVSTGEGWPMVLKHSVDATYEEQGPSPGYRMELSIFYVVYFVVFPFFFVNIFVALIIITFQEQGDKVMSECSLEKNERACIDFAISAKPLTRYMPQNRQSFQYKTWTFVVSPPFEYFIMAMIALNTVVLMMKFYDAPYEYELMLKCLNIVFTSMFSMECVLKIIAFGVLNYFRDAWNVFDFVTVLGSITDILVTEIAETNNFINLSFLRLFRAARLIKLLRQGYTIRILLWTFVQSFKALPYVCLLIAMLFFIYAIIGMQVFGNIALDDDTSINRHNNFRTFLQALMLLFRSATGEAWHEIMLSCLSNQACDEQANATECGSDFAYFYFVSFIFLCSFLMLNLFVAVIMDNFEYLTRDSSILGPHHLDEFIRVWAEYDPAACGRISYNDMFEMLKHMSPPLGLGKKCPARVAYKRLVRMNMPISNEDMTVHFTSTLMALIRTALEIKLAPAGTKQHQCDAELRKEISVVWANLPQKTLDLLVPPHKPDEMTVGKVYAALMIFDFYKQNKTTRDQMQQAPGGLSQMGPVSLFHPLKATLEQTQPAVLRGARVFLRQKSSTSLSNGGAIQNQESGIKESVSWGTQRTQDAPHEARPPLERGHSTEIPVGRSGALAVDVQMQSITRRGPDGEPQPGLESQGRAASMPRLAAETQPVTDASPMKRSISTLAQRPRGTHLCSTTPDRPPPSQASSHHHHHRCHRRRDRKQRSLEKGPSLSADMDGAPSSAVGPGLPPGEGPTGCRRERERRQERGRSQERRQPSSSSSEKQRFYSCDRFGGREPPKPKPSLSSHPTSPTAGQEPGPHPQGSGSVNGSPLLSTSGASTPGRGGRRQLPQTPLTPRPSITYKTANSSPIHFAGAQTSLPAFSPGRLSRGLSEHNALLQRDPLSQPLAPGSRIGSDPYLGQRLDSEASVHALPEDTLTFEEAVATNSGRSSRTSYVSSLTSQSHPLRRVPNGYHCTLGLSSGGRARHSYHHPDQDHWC
T7 sequence (Q02410 whole entry): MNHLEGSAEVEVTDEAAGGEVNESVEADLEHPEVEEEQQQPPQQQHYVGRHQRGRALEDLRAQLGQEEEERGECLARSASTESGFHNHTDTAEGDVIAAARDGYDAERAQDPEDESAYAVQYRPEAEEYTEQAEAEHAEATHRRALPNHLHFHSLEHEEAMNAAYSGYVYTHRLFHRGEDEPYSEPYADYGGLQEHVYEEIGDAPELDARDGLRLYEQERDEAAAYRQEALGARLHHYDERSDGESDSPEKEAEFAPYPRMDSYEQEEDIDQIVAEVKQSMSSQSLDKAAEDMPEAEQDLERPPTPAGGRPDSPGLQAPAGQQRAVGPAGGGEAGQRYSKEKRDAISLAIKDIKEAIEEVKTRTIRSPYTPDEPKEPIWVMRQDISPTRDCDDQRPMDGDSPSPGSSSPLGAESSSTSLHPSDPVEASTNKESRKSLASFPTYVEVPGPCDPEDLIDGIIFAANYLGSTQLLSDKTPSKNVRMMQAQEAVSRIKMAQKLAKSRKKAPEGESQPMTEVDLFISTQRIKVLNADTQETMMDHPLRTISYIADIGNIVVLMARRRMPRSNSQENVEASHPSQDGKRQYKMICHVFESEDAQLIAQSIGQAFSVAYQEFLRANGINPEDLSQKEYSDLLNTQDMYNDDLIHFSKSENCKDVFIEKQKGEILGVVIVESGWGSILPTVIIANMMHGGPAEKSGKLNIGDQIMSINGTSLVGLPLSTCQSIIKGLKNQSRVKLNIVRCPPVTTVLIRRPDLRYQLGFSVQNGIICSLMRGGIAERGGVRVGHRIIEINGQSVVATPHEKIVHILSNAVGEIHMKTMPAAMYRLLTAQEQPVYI

[27] = target: T6, SUMO-activating enzyme; assay: blockers of SAE1/SAE2–UBC9 SUMO transfer – biochemical, HTRF, uHTS, primary screen (AID 2006); assay type: protein-complex assay
[28] = target: Likely tRNA 2'-phosphotransferase (Candida albicans (strain SC5314 / ATCC MYA-2876) (Yeast), UniProt Q5A7N4); assay: inhibition of Candida TPT1 enzyme activity – biochemical, fluorescence polarization, dose response (AID 2160)
Sequence of Likely tRNA 2'-phosphotransferase (Q5A7N4 whole entry): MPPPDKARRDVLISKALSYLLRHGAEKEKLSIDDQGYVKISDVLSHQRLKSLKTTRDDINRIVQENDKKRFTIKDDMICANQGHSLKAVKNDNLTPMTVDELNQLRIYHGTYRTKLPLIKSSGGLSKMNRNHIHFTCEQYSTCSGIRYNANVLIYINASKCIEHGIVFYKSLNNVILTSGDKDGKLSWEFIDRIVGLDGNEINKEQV

[29] = target: T7, Voltage-gated N-type calcium channel alpha-1B subunit/Amyloid beta A4 precursor protein-binding family A member 1; assay type: protein assay; remark: listed apart in the source
[30] = target: T5, Dual specificity protein phosphatase 3; assay: VHR1 phosphatase inhibitors, biochemical (AID 1878)
[31] = target: T8, Dual specificity protein phosphatase 6 (Rattus norvegicus, UniProt Q64346); assay: inhibition of rat DUSP6 enzyme activity – biochemical, in vitro, primary screen (AID 425)
T8 sequence (Q64346 whole entry): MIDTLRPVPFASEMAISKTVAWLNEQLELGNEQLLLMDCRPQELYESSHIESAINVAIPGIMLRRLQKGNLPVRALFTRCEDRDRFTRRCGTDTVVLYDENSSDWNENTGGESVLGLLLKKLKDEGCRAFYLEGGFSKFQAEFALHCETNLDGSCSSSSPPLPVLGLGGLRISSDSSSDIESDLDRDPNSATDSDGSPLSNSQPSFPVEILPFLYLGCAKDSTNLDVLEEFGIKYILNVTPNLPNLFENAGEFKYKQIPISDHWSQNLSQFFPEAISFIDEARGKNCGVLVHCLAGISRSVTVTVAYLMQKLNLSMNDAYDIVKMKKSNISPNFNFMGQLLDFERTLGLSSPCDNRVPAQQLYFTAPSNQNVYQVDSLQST

[32] = target: T9, Small ubiquitin-related modifier 1 (Homo sapiens, UniProt P63165); assay: SUMO1 protein interaction blockers, potency – biochemical, fluorescence polarization, uHTS hits, dose response (AID 624382); assay type: functional; settings: read-out: IC50_Mean
T9 sequence (P63165 whole entry): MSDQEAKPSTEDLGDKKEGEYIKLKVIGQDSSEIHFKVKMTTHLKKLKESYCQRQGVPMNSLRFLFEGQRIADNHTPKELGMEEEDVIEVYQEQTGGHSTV

[33] = target: T9, Small ubiquitin-related modifier 1; assay: SUMO1 protein-protein binding blockers, potency – biochemical, FRET, dose response (AID 624383); assay type: functional; settings: read-out: IC50_Mean

Nc1cc(-c2ccccc2)nn1S(=O)(=O)c1c(F)c(F)c(F)c(F)c1F
IC50 [1]: > 100 µM (not active) | IC50 [2]: 5.83 µM (active) | IC50 [3]: > 100 µM (not active) | IC50 [4]: > 20 µM (inactive) | IC50 [5]: > 20 µM (inactive) | IC50 [6]: > 20 µM (inactive) | IC50 [7]: > 20 µM (inactive)

Cc1ccc(-c2nc3c(Cl)cc(Cl)cc3c(=O)n2O)cc1
EC50 [8]: 31 µM (inconclusive) | EC50 [9]: 2.19 µM (active) | EC50 [10]: 0.891 µM (active) | EC50 [11]: > 180 µM (inactive) | EC50 [12]: 2.15 µM (active) | IC50 [13]: > 119 µM (inactive) | IC50 [14]: > 119 µM (inactive) | IC50 [15]: 15.1 µM (active) | EC50 [16]: 3.24 µM (active) | AC50 [17]: 16.2 µM (active)

COc1cc(NC(S)=NCCC(c2ccccc2)c2ccccc2)cc(OC)c1
EC50 [18]: 2.02 µM (active) | EC50 [19]: > 60 µM (not active) | IC50 [20]: 13.7 µM (active) | IC50 [21]: 12.2 µM (active) | IC50 [22]: > 100 µM (inactive)

Cc1cc(C)n(Cc2ccc(C(=O)N/N=C/c3ccc(-c4ccc([N+](=O)[O-])cc4)o3)o2)n1
IC50 [23]: 123 µM (inactive) | IC50 [24]: > 55.7 µM (not active) | IC50 [25]: 5.62 µM (active) | IC50 [26]: 20.2 µM (active) | IC50 [27]: 33 µM (active) | IC50 [28]: 3.55 µM (active) | IC50 [29]: 14 µM (active) | IC50 [30]: 6.64 µM (active) | IC50 [31]: 40 µM (active) | IC50 [32]: > 66.6 µM (inactive) | IC50 [33]: 3.17 µM (active)

— ChEMBL document CHEMBL1201862, “PubChem BioAssay data set” (2004)
